Assay results reported in patent US9212163B2, “Pesticidal compositions and processes related thereto” (Dow AgroSciences LLC, priority 2012, dated 2015).
Where two headings read alike, the source gives them in different places.

Assays:
[1] = system: Corn Earworm (CEW) (Helicoverpa zea); experiment: Bioassay on Corn Earworm (CEW), 128-well diet tray assay; assay type: in vivo; conditions: Table 3: Assay Results Part 1, read-out: CEW Rating
Method: (§1) Certain molecules disclosed in this document were tested against BAW, CEW and CL using procedures described in the following examples. In the reporting of the results, the “BAW & CEW & CL Rating Table” was used (See Table Section).
Bioassays on CEW (Helicoverpa zea)
Bioassays on CEW were conducted using a 128-well diet tray assay. One to five second instar CEW larvae were placed in each well (3 mL) of the diet tray that had been previously filled with 1 mL of artificial diet to which 50 μg/cm^2 of the test compound (dissolved in 50 μL of 90:10 acetone-water mixture) had been applied (to each of eight wells) and then allowed to dry. Trays were covered with a clear self-adhesive cover, and held at 25° C., 14:10 light-dark for five to seven days. Percent mortality was recorded for the larvae in each well; activity in the eight wells was then averaged. The results are indicated in the table entitled “Table 3: Assay Results Part 1” (See Table Section).

[2] = system: Beet Armyworm (BAW) (Spodoptera exigua); experiment: Bioassay on Beet Armyworm (BAW), 128-well diet tray assay; assay type: in vivo; conditions: Spodoptera exigua, read-out: BAW Rating
Method in brief: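 Artificial diet treated with 50 μg/cm^2 compound in 90:10 acetone-water was dried, then one to five second-instar larvae were placed per well, eight wells per compound. Trays were held at 25° C., 14:10 light-dark for five to seven days, and percent mortality averaged across wells.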

[3] = system: Green Peach Aphid (GPA) (Myzus persicae); experiment: Bioassay on Green Peach Aphid (GPA), foliar spray on cabbage seedlings; assay type: in vivo; conditions: 72 h, Table 5: Prophetic Compounds Subsequently Exemplified, read-out: GPA Rating
Method: Certain molecules disclosed in this document were tested against GPA using procedures described in the following example. In the reporting of the results, the “GPA Rating Table” was used (See Table Section).
Cabbage seedlings grown in 3-inch pots, with 2-3 small (3-5 cm) true leaves, were used as test substrate. The seedlings were infested with 20-50 GPA (wingless adult and nymph stages) one day prior to chemical application. Four pots with individual seedlings were used for each treatment. Test compounds (2 mg) were dissolved in 2 mL of acetone/methanol (1:1) solvent, forming stock solutions of 1000 ppm test compound. The stock solutions were diluted 5× with 0.025% Tween 20 in H2O to obtain the solution at 200 ppm test compound. A hand-held aspirator-type sprayer was used for spraying a solution to both sides of […] leaves until runoff. Reference plants (solvent check) were sprayed with the diluent only containing 20% by volume of acetone/methanol (1:1) solvent. Treated plants were held in a holding room for three days at approximately 25° C. and ambient relative humidity (RH) prior to grading. Evaluation was conducted by counting the number of live aphids per plant under a microscope. Percent Control was measured by using Abbott's correction formula (W. S. Abbott, “A Method of Computing the Effectiveness of an Insecticide” J. Econ. Entomol. 18 (1925), pp. 265-267) as follows. Corrected % Control=100*(X−Y)/X • where • X=No. of live aphids on solvent check plants and • Y=No. of live aphids on treated plants
The results are indicated in the tables entitled “Table 3: Assay Results” and “Table 4: Assay Results Part 2” (See Table Section).

[4] = system: Cabbage Looper (CL) (Trichoplusia ni); experiment: Bioassay on Cabbage Looper (CL), 128-well diet tray assay; assay type: in vivo; conditions: Table 5: Prophetic Compounds Subsequently Exemplified, read-out: CL Rating
Method: as §1
Bioassays on CL (Trichoplusia ni)
Bioassays on CL were conducted using a 128-well diet tray assay. One to five second instar CL larvae were placed in each well (3 mL) of the diet tray that had been previously filled with 1 mL of artificial diet to which 50 μg/cm^2 of the test compound (dissolved in 50 μL of 90:10 acetone-water mixture) had been applied (to each of eight wells) and then allowed to dry. Trays were covered with a clear self-adhesive cover, and held at 25° C., 14:10 light-dark for five to seven days. Percent mortality was recorded for the larvae in each well; activity in the eight wells was then averaged. The results are indicated in the table entitled “Table 4: Assay Results Part 2” (See Table Section).

`NC(=O)c1ccc(/C=C/C(c2cc(Cl)cc(Cl)c2)C(F)(F)F)cc1` (stereo not drawn) [AC2] showed a melting point of 110 to 112 °C.
For `Cc1cc(/C=C/C(c2cc(Cl)cc(Cl)c2)C(F)(F)F)ccc1C(=O)NCC(=O)NCC(F)(F)F` (stereo not drawn) [AC24], the pest or weed control at 50 µg/cm2 [1] was 50 to 100% and the pest or weed control at 50 µg/cm2 ([2]; Table 3: Assay Results Part 1) was 50 to 100%.
Work on `CCNC(=O)C1(NC(=O)c2ccc(/C=C/C(c3cc(Cl)c(Cl)c(Cl)c3)C(F)(F)F)cc2C)CC1` (stereo not drawn) [Compound P1026] yielded a pest or weed control at 200 µg/mL [3] of 0 to 80%, a pest or weed control at 50 µg/cm2 [4] of 50 to 100% and a pest or weed control at 50 µg/cm2 ([2]; Table 5: Prophetic Compounds Subsequently Exemplified) of 50 to 100%.
